Tests used:
[1] = tested on: ethanol/HCl-induced gastric lesions; assay: Ethanol/HCl-induced gastric lesion (ulcer) model in mice; type: in vivo; details: single oral dose 25 mg/kg; for inhibition in vivo at 25 mg/kg: Mus musculus, po, compared with untreated controls, read-out: Gastroprotective effect: % Lesion reduction; for Gastroprotective effect: Lesion index: mean ± SD, sum of lesion lengths
Method: The gastroprotective activity of the compounds was determined in the ethanol/HCl-induced lesion model in mice. The purity of the tested compounds was higher than 95% by NMR analysis. Male Swiss albino mice weighing 30 ± 3 g were used. Animals were fed on certified Champion diet with free access to water under standard conditions of 12 h dark-light period, 50% relative humidity and 22 °C room temperature. Mice were randomly distributed into groups of eight animals each and fasted for 24 h with free access to water previous to the experiment. Fasting prior to ulcerogenic assays was used because 0.2 mL of the reference antisecretory drug lansoprazole (2-[[[3-methyl-4-(2,2,2-trifluroethoxy)-2-pyridyl]methyl]sulfinyl]benzimidazole) and the amides were administered orally. To keep the animal number to a minimum, dose-response studies were performed with the leucine derivatives 13 and 18 to set the conditions for single-dose comparison of gastroprotective effect. For the selected parent compounds, three doses were used: 25, 50 and 100 mg/kg. Fifty min after oral administration of the compounds, lansoprazole (20 mg/kg) or the vehicle (12% Tween 80, 10 mL/kg), all groups were orally treated with 0.2 mL of a solution containing 60% ethanol/0.3 M HCl (ethanol/HCl) for gastric lesion induction. Animals were sacrificed by cervical dislocation 1 h after the administration of ethanol/HCl, and the stomachs excised and inflated by injection of 5% formalin (1 mL). The ulcerated stomachs were fixed in 5% formalin for 30 min and opened along the greater curvature. The length (mm) of each lesion was measured, and the lesion index expressed as the sum of the length of all lesions. For comparison purposes, the products 1-5, 7-12, 14-16, 19 and 20 were assessed at a single oral dose of 25 mg/kg. The protocols were approved by the Universidad de Talca Institutional Animal Care and Use Committee, which follows the recommendations of the Canadian Council on Animal Care. Tween 80 and lansoprazole (> 98% purity by HPLC) were purchased from Sigma Chemical Co.
Results were expressed as the mean ± SD. In all experiments, statistical differences between several treatments and their respective control were determined by one-way analysis of variance (ANOVA) and when the F value was significant, post hoc differences were determined by the Dunnett's multiple comparison test. The level of significance was set at P < 0.05. All statistical analyses were performed using the software Statistica 5.1 (StatSoft, Inc.) and Statistical Package S-Plus 2000.

[2] = Cytotoxicity, neutral red uptake assay, AGS; type: cell-based; details: human, AGS gastric adenocarcinoma cells, confluent monolayers, confluent cultures, 0-1000 µM, mean ± SD
Method: (§1) Human gastric adenocarcinoma cells AGS (ATCC CRL-1739) were grown as monolayers in Ham F-12 medium containing 1.0 mM L-glutamine and 1.5 g/L sodium bicarbonate, supplemented with 10% heat-inactivated FBS, 100 IU/mL penicillin and 100 µg/mL streptomycin in a humidified incubator with 5% CO2 in air at 37 °C. The cell passage was maintained between 42 and 48. The medium was changed every 2 days. Confluent cultures of MRC-5, AGS and Hep G2 cells were treated with medium containing the compounds at concentrations ranging from 0 up to 1000 µM. The products were first dissolved in DMSO and then in the corresponding culture medium supplemented with 2% FBS. The final content of DMSO in the test medium and controls was 1%. Cells were exposed for 24 h to the assayed compounds. Untreated cells served as controls. Each concentration was tested in quadruplicate together with the control and repeated three times in separate experiments. At the end of the incubation, the neutral red uptake (NRU) assay was carried out to determine cell viability. To calculate the IC50 values (concentration that produces a 50% inhibitory effect on the evaluated parameter) the results were transformed to percentage of controls and the IC50 value was graphically obtained from the dose-response curves.

[3] = Cytotoxicity, neutral red uptake assay, Hep G2; type: cell-based; details: human, Hep G2 cells, confluent monolayers, confluent cultures, 0-1000 µM, mean ± SD
Method: (§2) Human normal lung fibroblasts MRC-5 (ATCC CCL-171) and Hep G2 cells (ATCC HB-8065) were grown as monolayers in minimum essential Eagle´s medium (MEM), with Earle's salts, 2.0 mM L-glutamine (Sigma Chemical Co.) and 2.0 g/L sodium bicarbonate (Sigma Chemical Co.), supplemented with 10% heat-inactivated fetal bovine serum (FBS), 100 IU/mL penicillin and 100 µg/mL streptomycin in a humidified incubator with 5% CO2 in air at 37 °C. Cell passage was maintained between 10 and 16 for MRC-5 and between 79 and 82 for Hep G2 cells. The medium was changed every 2 days. Culture media, antibiotics and FBS were obtained from Invitrogen Corp.
as §1, with “Confluent” for “Human gastric adenocarcinoma cells AGS (ATCC CRL-1739) were grown as monolayers in Ham F-12 medium containing 1.0 mM L-glutamine and 1.5 g/L sodium bicarbonate, supplemented with 10% heat-inactivated FBS, 100 IU/mL penicillin and 100 µg/mL streptomycin in a humidified incubator with 5% CO2 in air at 37 °C. The cell passage was maintained between 42 and 48. The medium was changed every 2 days. Confluent”

[4] = Cytotoxicity, neutral red uptake assay, MRC-5; type: cell-based; details: human, MRC-5 normal lung fibroblasts, confluent monolayers, confluent cultures, 0-1000 µM, mean ± SD
Method: as §2
as §1, with “Confluent” for “Human gastric adenocarcinoma cells AGS (ATCC CRL-1739) were grown as monolayers in Ham F-12 medium containing 1.0 mM L-glutamine and 1.5 g/L sodium bicarbonate, supplemented with 10% heat-inactivated FBS, 100 IU/mL penicillin and 100 µg/mL streptomycin in a humidified incubator with 5% CO2 in air at 37 °C. The cell passage was maintained between 42 and 48. The medium was changed every 2 days. Confluent”

| SMILES | inhibition in vivo at 25 mg/kg [1] [%] | Gastroprotective effect: Lesion index [1] [mm] | IC50 at 24 h [2] [µM] | IC50 at 24 h [3] [µM] | IC50 at 24 h [4] [µM] |
| --- | --- | --- | --- | --- | --- |
| COC(=O)[C@H](Cc1c[nH]c2ccccc12)NC(=O)C[C@H](C)CCC1=C(C)CCC2[C@@](C)(C(=O)N[C@@H](Cc3c[nH]c4ccccc34)C(=O)OC)CCC[C@]12C (stereo partly shown) [Compound 10, Labd-8(9)-en-15,19-dioic acid, 15,19-ditryptophanyl methyl ester amide] | 61.7 | 17.6 ± 7.8 | > 1000 | > 1000 | > 1000 |
| COC(=O)[C@@H]1CCCN1C(=O)[C@@]1(C)CCC[C@]2(C)C(CC[C@@H](C)CC(=O)O)=C(C)CCC12 (stereo partly shown) [Compound 7, Labd-8(9)-en-15,19-dioic acid, 19-prolyl methyl ester amide] | 53.9 | 21.2 ± 9.5 | 266 ± 16 | 364 ± 15 | 459 ± 32 |
| C=C1CCC2[C@](C)(CCC[C@]2(C)C(=O)NCC(=O)OC)[C@H]1CC[C@@H](C)CC(=O)NCC(=O)OC (stereo partly shown) [Compound 16, Labd-8(17)-en-15,19-dioic acid, 15,19-diglycyl methyl ester amide] | 73.5 | 12.2 ± 6.9 | 483 ± 29 | 529 ± 36 | > 1000 |
| C=C1CCC2[C@](C)(CCC[C@]2(C)C(=O)O)[C@H]1CC[C@@H](C)CC(=O)N[C@@H](Cc1c[nH]c2ccccc12)C(=O)OC (stereo partly shown) [Compound 15, Labd-8(17)-en-15,19-dioic acid, 15-tryptophanyl methyl ester amide] | 73.7 | 12.1 ± 4.7 | > 1000 | > 1000 | > 1000 |
| COC(=O)[C@H](CC(C)C)NC(=O)C[C@H](C)CCC1=C(C)CCC2[C@@](C)(C(=O)O)CCC[C@]12C (stereo partly shown) [Compound 3, Labd-8(9)-en-15,19-dioic acid, 15-leucyl methyl ester amide] | 72.6 | 12.6 ± 6.8 | 445 ± 27 | 806 ± 32 | > 1000 |
